Our source for the IC50 values is US12421254B2, “KRAS modulators and uses thereof” (Quanta Therapeutics, Inc., priority 2023, dated 2025).

Structures are written as SMILES. Some results are limits rather than exact numbers.

Assay [1] deals with GST-tagged KRAS-G12V (2-169) (Homo sapiens, UniProt P01116, G12V). Put plainly: Nucleotide exchange assay (NEA), SOS-mediated, HTRF, KRAS G12V. The assay is classed as biochemical. The following applies: Table 4; IC50 extracted at 90 min; 80 nM SOS. Summed up: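 GST-KRAS-G12V (2-169), 0.25 nM, pre-incubated 1 h at RT with compound, then SOS1cat (564-1049) 80 nM and GTP-DY-647P1 150 nM added in HEPES pH 7.3 buffer with MgCl2 and DTT. HTRF via anti-GST Tb cryptate read over 90 min; IC50 from 4-parameter fit at 90 min, blanked to no-SOS reactions.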
Chain of GST-tagged KRAS-G12V (2-169) (P01116 2-169 isoform P01116-2 G12V): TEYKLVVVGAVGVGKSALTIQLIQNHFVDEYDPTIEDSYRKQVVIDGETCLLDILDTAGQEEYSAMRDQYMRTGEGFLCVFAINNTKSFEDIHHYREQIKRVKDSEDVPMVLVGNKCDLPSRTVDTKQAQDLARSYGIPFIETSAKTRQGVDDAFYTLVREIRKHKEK
In general terms: TR-FRET usually uses a lanthanide donor and a delayed reading to cut background.

The subject of assay [2] is phospho-ERK in SW620 (KRAS-G12V) cells. Put plainly: pERK In Cell Western (ICW) assay (Method B), SW620. The assay is classed as cell-based. The conditions noted are these: Homo sapiens, SW-620, 3 h, Table 4. On the procedure: pERK ICW is a high throughput screening assay to evaluate the cellular potency of mutant KRAS small molecule inhibitors. KRAS mutant cell lines AGS, GP2D (KRAS-G12D) as well as SW620 (KRAS-G12V) were purchased from ATCC and maintained respectively in RPMI/DMEM/RPMI medium supplemented with 10% fetal bovine serum.
Cells grown in exponential phase were trypsinized, resuspended in fresh media, and viable cells were counted using a cell counter with Trypan Blue (BioRad TC20). Cells were seeded into 384-well plate (Greiner 781091) at density of 5,000 cells/well for AGS and 10,000 cells/well for GP2D/SW620 and allowed to grow overnight in a 37° C. CO2 incubator. The next day, compounds were dispensed into wells with a ½ log, 9-point serial dilution using a Tecan D300e dispenser and incubated for 3 hours in a 37° C. CO2 incubator. Cells were then fixed with paraformaldehyde (Electron Microscopy Sciences, 15710, 4% final concentration) for 30 min, permeabilized with wash buffer (1×PBS+0.1% Triton X-100) for 30 min and blocked with Odyssey blocking buffer (Li—COR 927-70001) for 1 hour, all at room temperature (RT). Phospho-ERK antibody (CST 4370L) was diluted 1:500 in Odyssey T20 (PBS) antibody diluent (Li—COR 927-75001) and incubated with cells overnight at 4° C. The next day, plates were washed 5× with wash buffer, incubated with IRDye 800 CW, Goat anti-Rabbit secondary antibody (Li—COR 926-32211, 1:800) and DRAQ5 (CST 4084L, 1:5,000) diluted in Odyssey T20 (PBS) antibody diluent for 1 hour, washed 5×, and imaged on an Odyssey CLx imaging system.
For data analysis, signal intensities from 800 (phosphor-ERK) and 700 (DRAQ5) channels were extracted, and phospho-ERK signals were normalized to DRAQ5 signals for each well and percent of blank control values were computed. Data were then imported into Graphpad Prism to compute half-maximal inhibitory concentrations (IC50) using a 4-parameter variable slope model. Z-factor for each plate was computed from signals derived from wells treated with either DMSO or 5 μM of control compound. AGS pERK ICW (Method B) IC50 (uM) values of selected compounds are depicted in Table 2 with compounds having a value ≥0.001 uM to 0.01 uM as ++++; ≥0.01 uM to 0.1 uM as +++; ≥0.1 uM to 1 uM as ++; ≥1 uM to 10 uM as + and ≥10 uM as NA.

Assay [3] has as its target GST-tagged KRAS-G12D (2-169) (Homo sapiens, UniProt P01116, G12D). The assay is described as follows: Nucleotide exchange assay (NEA), SOS-mediated, HTRF, KRAS G12D. The format is biochemical. The conditions noted are these: Table 4; IC50 extracted at 30 min; 20 nM SOScat; read-out: NEA G12D IC50. Summed up: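 Compound preincubated 1 h at RT with 0.25 nM GST-KRAS-G12D (2-169) and anti-GST Tb donor, then 20 nM SOS1cat (564-1049) and 150 nM GTP-DY-647P1 added; pH 7.3 HEPES buffer with MgCl2 and DTT. HTRF monitored at RT; % inhibition versus DMSO and no-SOS blank, 4-parameter IC50 taken at 30 min.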

Chain of GST-tagged KRAS-G12D (2-169) (P01116 2-169 isoform P01116-2 G12D): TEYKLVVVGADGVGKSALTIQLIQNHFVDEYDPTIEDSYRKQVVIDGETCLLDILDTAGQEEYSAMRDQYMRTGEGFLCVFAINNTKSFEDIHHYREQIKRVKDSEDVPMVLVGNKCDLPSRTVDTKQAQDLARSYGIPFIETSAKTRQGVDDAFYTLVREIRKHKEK

Take `N#CCN(Cc1c[nH]nn1)c1nc(OC[C@@]23CCCN2C[C@H](F)C3)nc(N2CC3(C2)SCc2sc(N)c(C#N)c23)n1` [Compound 245, 2-amino-1′-[4-[cyanomethyl(1H-triazol-4-ylmethyl)amino]-6-[[(2R,8S)-2-fluoro-1,2,3,5,6,7-hexahydropyrrolizin-8-yl]methoxy]-1,3,5-triazin-2-yl]spiro[6H-thieno[3,4-b]thiophene-4,3′-azetidine]-3-carbonitrile]: the IC50 was less than 10 nM in assay [1], 1000 to 20000 nM in assay [2] and less than 10 nM in assay [3].

On to `C[C@H](c1cccnc1N)N(CC#N)c1nc(OC[C@@]23CCCN2C[C@H](F)C3)nc(N2CC3(C2)SCc2sc(N)c(C#N)c23)n1` [Compound 246, 2′-amino-1-(4-(((R)-1-(2-aminopyridin-3-yl)ethyl)(cyanomethyl)amino)-6-(((2R,7aS)-2-fluorotetrahydro-TH-pyrrolizin-7a(5H)-yl)methoxy)-1,3,5-triazin-2-yl)-6′H-spiro[azetidine-3,4′-thieno[3,4-b]thiophene]-3′-carbonitrile], for which the IC50 in assay [1], in assay [2] and in assay [3] was less than 10 nM each time.

For the compound `C#CCN(c1nc(OC[C@@]23CCCN2C[C@H](F)C3)nc(N2CC3(C2)SCc2sc(N)c(C#N)c23)n1)C1(C#N)CC1` [Compound 247, 2-amino-1′-[4-[(1-cyanocyclopropyl)-prop-2-ynyl-amino]-6-[[(2R,8S)-2-fluoro-1,2,3,5,6,7-hexahydropyrrolizin-8-yl]methoxy]-1,3,5-triazin-2-yl]spiro[6H-thieno[3,4-b]thiophene-4,3′-azetidine]-3-carbonitrile], the IC50 was less than 10 nM in assay [1], 100 to 1000 nM in assay [2] and less than 10 nM in assay [3].

Regarding `CC(CC#N)N(C)c1nc(OC[C@@]23CCCN2C[C@H](F)C3)nc(N2CC3(C2)SCc2sc(N)c(C#N)c23)n1` (stereo partly drawn) [Compound 249, 2-amino-1′-[4-[(2-cyano-1-methyl-ethyl)-methyl-amino]-6-[[(2R,8S)-2-fluoro-1,2,3,5,6,7-hexahydropyrrolizin-8-yl]methoxy]-1,3,5-triazin-2-yl]spiro[6H-thieno[2,3-c]thiophene-4,3′-azetidine]-3-carbonitrile], the IC50 in assay [1] is less than 10 nM; in assay [2] it was 1000 to 20000 nM; in assay [3], less than 10 nM.

On to `CC(c1c[nH]nn1)N(CC#N)c1nc(OC[C@@]23CCCN2C[C@H](F)C3)nc(N2CC3(C2)SCc2sc(N)c(C#N)c23)n1` (stereo partly drawn) [Compound 250, 2-amino-1′-[4-[cyanomethyl-[1-(1H-triazol-4-yl)ethyl]amino]-6-[[(2R,8S)-2-fluoro-1,2,3,5,6,7-hexahydropyrrolizin-8-yl]methoxy]-1,3,5-triazin-2-yl]spiro[6H-thieno[3,4-b]thiophene-4,3′-azetidine]-3-carbonitrile], for which the IC50 in assay [1] was less than 10 nM; in assay [2] it was 100 to 1000 nM; in assay [3] it was less than 10 nM.

As to `N#CCN(c1nc(OC[C@@]23CCCN2C[C@H](F)C3)nc(N2CC3(C2)SCc2sc(N)c(C#N)c23)n1)C1(C#N)CC1` [Compound 251, 2-amino-1′-[4-[(1-cyanocyclopropyl)-(cyanomethyl)amino]-6-[[(2R,8S)-2-fluoro-1,2,3,5,6,7-hexahydropyrrolizin-8-yl]methoxy]-1,3,5-triazin-2-yl]spiro[6H-thieno[3,4-b]thiophene-4,3′-azetidine]-3-carbonitrile], the results for the IC50 in assay [1], in assay [2] and in assay [3] were less than 10 nM, 10 to 100 nM and less than 10 nM, respectively.

Consider `CCN(c1nc(OC[C@@]23CCCN2C[C@H](F)C3)nc(N2CC3(C2)SCc2sc(N)c(C#N)c23)n1)C(C)CC#N` (stereo partly drawn) [Compound 254, 2-amino-1′-[4-[(2-cyano-1-methyl-ethyl)-ethyl-amino]-6-[[(2R,8S)-2-fluoro-1,2,3,5,6,7-hexahydropyrrolizin-8-yl]methoxy]-1,3,5-triazin-2-yl]spiro[6H-thieno[3,4-b]thiophene-4,3′-azetidine]-3-carbonitrile; formic acid], for which the IC50 in assay [1] is less than 10 nM; in assay [2], 100 to 1000 nM; in assay [3], less than 10 nM.

Usually IC50 stands for the midpoint of a concentration-inhibition curve.
